The record followed here is patent EP0415103A1, “2,3-Dihydro-1-(pyridinylamino)-indoles, a process for their preparation and their use as medicaments” (HOECHST-ROUSSEL PHARMACEUTICALS INCORPORATED, priority 1989, dated 1991).

One experiment relates to extensor tonus. The experiment in a line: supramaximal electroshock (SES) assay (anticonvulsant activity). The format is in vivo, male mouse. To be noted: 30 minute pretreat, normalized relative to vehicle control. Here is the method:
The compounds of the invention are also useful as anticonvulsants due to their anticonvulsant activity in mammals. Anticonvulsant activity is measured in the male mouse using the supramaximal electroshock (SES) assay described in Arch. Int. Pharmacodyn. 92:97-107, 1952. In this procedure, groups of male mice are used. Drugs are prepared using distilled water and, if insoluble, a surfactant is added. Control animals receive vehicle. Drugs are routinely administered interperitoneally (i.p.). The dosage volume is 10 ml/kg. A primary screen is given a 30 minute pretreat. The animals' eyes are placed across the output terminals of an A.C. shocker that delivers 206 volts rms for 300 msec. Electrode paste coats the animals' eyes at the point of contact with the terminals. […] Protection is expressed as normalized percent inhibition relative to vehicle control.
Background: Protection in the maximal electroshock model is a classic sign of anticonvulsant action.

Experiment [1] concerns phenyl-para-quinone induced writhing. The experiment is described as follows: phenyl-para-quinone writhing assay (analgesia). The experiment is classed as in vivo, mice. To be noted: for % Inhibition of Writhing: 20 mg/kg s.c., mice. On the technique in general: An intraperitoneal irritant provokes the stretching counted in writhing tests.
The subject of experiment [2] is Scopolamine Induced Memory Deficit. The experiment is described as follows: Dark Avoidance Assay (reversal of scopolamine-induced memory deficit). The experiment is classed as in vivo. To be noted: mice, retest after 24 hours. Here is the method: In this assay, mice are tested for their ability to remember an unpleasant stimulus for a period of 24 hours. A mouse is placed in a chamber that contains a dark compartment; a strong incandescent light drives it to the dark compartment, where an electric shock is administered through metal plates on the floor. The animal is removed from the testing apparatus and tested again, 24 hours later, for the ability to remember the electric shock. If scopolamine, an anticholinergic that is known to cause memory impairment, is administered before an animal's initial exposure to the test chambers, the animal re-enters the dark compartment shortly after being placed in the test chamber 24 hours later. The effect of scopolamine is blocked by an active test compound, resulting in a greater interval before re-entry into the dark compartment. The results for an active compound are expressed as the percent of a group of animals in which the effect of scopolamine is blocked, as manifested by an increased interval between being placed in the test chamber and re-entering the dark compartment. The activity of some of the compounds of the instant invention in the assay are given below in Table 2.

Turning to `CCCN(c1ccncc1)N1CCc2ccccc21.O=C(O)C(=O)O` [2,3-Dihydro-N-propyl-N-(4-pyridinyl)-1H-indol-1-amine oxalate], the “% Inhibition” value with extensor tonus (10 mg/kg i.p.) is recorded as -40% at 10 mg/kg i.p. In addition, the “% Inhibition of Writhing” value in experiment [1] is on record as 100% at 20 mg/kg.
`Nc1c2c(nc3ccccc13)CCCC2` [Tacrine]: the “% of Animals With Scopolamine Induced Memory Deficit Reversal” value in experiment [2] (0.63 mg/kg s.c) came out at 13%.
Take `CCC1(c2ccccc2)C(=O)NC(=O)NC1=O` [Phenobarbital, reference compound]: the “% Inhibition” value with extensor tonus (8.4 mg/kg i.p.) is listed as -50% at 8.4 mg/kg.
For `CC[C@@H]1C(=O)OC[C@@H]1Cc1cncn1C` [Pilocarpine], the “% of Animals With Scopolamine Induced Memory Deficit Reversal” value in experiment [2] (1.25 mg/kg s.c) amounted to 19%.
Consider `c1ccc2c(c1)CCN2Nc1ccncc1` [2,3-Dihydro-N-(4-pyridinyl)-1H-indol-1-amine], for which, in the experiment with extensor tonus (15 mg/kg i.p.), the “% Inhibition” value is -40% at 15 mg/kg i.p. Moreover, the “% Inhibition of Writhing” value in experiment [1] came out at 74% at 20 mg/kg. For the same compound, in experiment [2] (0.3 mg/kg s.c.), the “% of Animals With Scopolamine Induced Memory Deficit Reversal” value came to 53%.
As for `CC(=O)Oc1ccccc1C(=O)O` [Aspirin, reference compound], the ED50 in experiment [1] (Mus musculus, sc, read-out: ED₅₀ (subcutaneous dose at which 50% of the phenyl-para-quinone induced writhing is inhibited)) amounted to 32.8 mg/kg.
